Source: PubChem BioAssay (NCI)
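1) Cells in 96-well plates. 2) Compound, 48 h, 5 concentrations. 3) Linear interpolation between surrounding doses. 4) Unreached endpoint = highest concentration. TGI denotes the concentration required for complete inhibition of growth.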

Experiments:
Test in all cases: DTP human tumour cell line panel, 48 h
OVCAR-8 ovarian = system: OVCAR-8 ovarian
HCT-116 colon = system: HCT-116 colon
SN12C renal = system: SN12C renal
NCI-H23 lung = system: NCI-H23 lung
KM12 colon = system: KM12 colon
SR leukemia = system: SR leukemia
DMS 114 small cell lung = system: DMS 114 small cell lung
KM20L2 colon = system: KM20L2 colon
M19-MEL melanoma = system: M19-MEL melanoma
DMS 273 small cell lung = system: DMS 273 small cell lung
LXFL 529 NSCLC = system: LXFL 529 NSCLC
DLD-1 colon = system: DLD-1 colon

Clc1ccc2oc(CCc3ccccc3)nc2c1
TGI (OVCAR-8 ovarian): > 100 µM | TGI (HCT-116 colon): > 100 µM | TGI (SN12C renal): > 100 µM | TGI (NCI-H23 lung): > 100 µM | TGI (KM12 colon): > 100 µM | TGI (SR leukemia): > 100 µM

O=C(c1ccccc1)c1c(CC(O)c2ccncc2)n(C(=O)c2ccccc2)c2ccccc12 (stereo unspecified)
TGI (DMS 114 small cell lung): 40.2 µM | TGI (KM20L2 colon): 34 µM | TGI (OVCAR-8 ovarian): > 100 µM | TGI (HCT-116 colon): 29.2 µM | TGI (M19-MEL melanoma): 33 µM | TGI (DMS 273 small cell lung): 37.1 µM | TGI (LXFL 529 NSCLC): 45.9 µM | TGI (DLD-1 colon): > 100 µM | TGI (NCI-H23 lung): 35 µM | TGI (KM12 colon): 37.8 µM | TGI (SR leukemia): 39.5 µM

Nc1ccc(Nc2cc(=O)[nH]c(=O)[nH]2)cc1Cl
TGI (OVCAR-8 ovarian): > 100 µM | TGI (HCT-116 colon): > 100 µM | TGI (SN12C renal): > 100 µM | TGI (NCI-H23 lung): > 100 µM | TGI (SR leukemia): > 100 µM

CC(C)(CCC(C)(C)N1OC1c1ccccc1)N1OC1c1ccccc1 (stereo unspecified)
TGI (OVCAR-8 ovarian): > 100 µM | TGI (HCT-116 colon): > 100 µM | TGI (SN12C renal): > 100 µM | TGI (NCI-H23 lung): > 100 µM | TGI (KM12 colon): > 100 µM | TGI (SR leukemia): 40.3 µM

c1ccc(CC2COC(c3cccs3)=N2)cc1 (stereo unspecified)
TGI (OVCAR-8 ovarian): > 100 µM | TGI (HCT-116 colon): > 100 µM | TGI (SN12C renal): > 100 µM | TGI (NCI-H23 lung): > 100 µM | TGI (KM12 colon): > 100 µM | TGI (SR leukemia): > 100 µM

CC(=O)OCC1OC(OCCCOP(=S)(OCCC#N)OCC2OC(n3ccc(N)nc3=O)C(OC(=O)c3ccccc3)C2OC(=O)c2ccccc2)C(OC(C)=O)C(OC(C)=O)C1OC(C)=O (stereo unspecified)
TGI (OVCAR-8 ovarian): > 100 µM | TGI (HCT-116 colon): > 100 µM | TGI (SN12C renal): > 100 µM | TGI (NCI-H23 lung): > 100 µM | TGI (KM12 colon): > 100 µM | TGI (SR leukemia): > 100 µM

Nc1nc2c(C(=O)O)c3ccc([N+](=O)[O-])cc3c(=O)n2c2ccccc12
TGI (OVCAR-8 ovarian): 34.8 µM | TGI (HCT-116 colon): 42.8 µM | TGI (SN12C renal): 58.1 µM | TGI (NCI-H23 lung): 64.9 µM | TGI (KM12 colon): > 100 µM | TGI (SR leukemia): > 100 µM

C=C(C)[C@@H]1CC[C@]2(C(=O)OC)CC[C@]3(C)[C@H](CC[C@@H]4[C@@]5(C)CC[C@H](O)C(C)(C)[C@@H]5CC[C@]43C)[C@@H]12
TGI (OVCAR-8 ovarian): 51.2 µM | TGI (HCT-116 colon): 37.4 µM | TGI (SN12C renal): 35.1 µM | TGI (NCI-H23 lung): > 100 µM | TGI (KM12 colon): > 100 µM | TGI (SR leukemia): > 100 µM

O=C(O)c1ccccc1N=Nc1c(O)c(S(=O)(=O)O)cc2cc(S(=O)(=O)O)ccc12
TGI (OVCAR-8 ovarian): > 100 µM | TGI (HCT-116 colon): > 100 µM | TGI (SN12C renal): > 100 µM | TGI (NCI-H23 lung): > 100 µM | TGI (KM12 colon): > 100 µM | TGI (SR leukemia): > 100 µM

NNc1nnc(-c2nnc(NN)o2)o1
TGI (OVCAR-8 ovarian): > 10 µM | TGI (HCT-116 colon): > 10 µM | TGI (SN12C renal): > 10 µM | TGI (NCI-H23 lung): > 10 µM | TGI (KM12 colon): > 10 µM | TGI (SR leukemia): > 10 µM

N#CCCC1(CCC#N)CCCCCCCCC(CCC#N)(CCC#N)C(O)C1O (stereo unspecified)
TGI (OVCAR-8 ovarian): > 100 µM | TGI (HCT-116 colon): > 100 µM | TGI (SN12C renal): > 100 µM | TGI (NCI-H23 lung): > 100 µM | TGI (KM12 colon): > 100 µM

C=C1CC[C@@H](C)[C@](C)(CCc2ccoc2)C/C=C\C=C/1C(=O)O
TGI (OVCAR-8 ovarian): 48.8 µM | TGI (HCT-116 colon): 54.6 µM | TGI (SN12C renal): > 100 µM | TGI (NCI-H23 lung): > 100 µM | TGI (KM12 colon): > 100 µM | TGI (SR leukemia): 59.2 µM

CC(=O)O[C@H]1CC[C@@]2(C)C(=CC[C@@H]3[C@@H]2CC[C@]2(C)c4nc(Cl)ccc4C[C@@H]32)C1
TGI (OVCAR-8 ovarian): > 100 µM | TGI (HCT-116 colon): > 100 µM | TGI (SN12C renal): > 100 µM | TGI (NCI-H23 lung): 19.4 µM | TGI (KM12 colon): > 100 µM | TGI (SR leukemia): > 100 µM

CN(CCCNC(=O)c1cc(-c2ccccc2)nc2ccccc12)CCCNC(=O)c1cc(-c2ccccc2)nc2ccccc12
TGI (OVCAR-8 ovarian): 5.65 µM | TGI (HCT-116 colon): 3.33 µM | TGI (SN12C renal): 17.4 µM | TGI (NCI-H23 lung): 16.1 µM | TGI (KM12 colon): 4.75 µM | TGI (SR leukemia): 12.3 µM

CCN(CC)c1nnc(CCCCCCCCc2nnc(N(CC)CC)o2)o1
TGI (OVCAR-8 ovarian): > 100 µM | TGI (HCT-116 colon): > 100 µM | TGI (SN12C renal): > 100 µM | TGI (NCI-H23 lung): > 100 µM | TGI (KM12 colon): > 100 µM

O=[N+]([O-])c1ccc(C(O)(C#CCN2CCCC2)c2ccccc2)cc1 (stereo unspecified)
TGI (OVCAR-8 ovarian): > 100 µM | TGI (HCT-116 colon): > 100 µM | TGI (SN12C renal): > 100 µM | TGI (NCI-H23 lung): > 100 µM | TGI (KM12 colon): > 100 µM | TGI (SR leukemia): 44.2 µM

N#Cc1nc(C#N)n(S(=O)(=O)c2ccccc2)c1NS(=O)(=O)c1ccccc1
TGI (OVCAR-8 ovarian): > 100 µM | TGI (HCT-116 colon): > 100 µM | TGI (SN12C renal): > 100 µM | TGI (NCI-H23 lung): > 100 µM | TGI (KM12 colon): > 100 µM | TGI (SR leukemia): > 100 µM

O=c1[nH]c2nc3ccccc3c(=O)n2/c1=C/c1ccco1
TGI (OVCAR-8 ovarian): > 100 µM | TGI (HCT-116 colon): > 100 µM | TGI (SN12C renal): > 100 µM | TGI (NCI-H23 lung): > 100 µM | TGI (KM12 colon): > 100 µM | TGI (SR leukemia): > 100 µM

CCc1ccc2c(c1)N(CC(C)CN(C)C)c1ccccc1S2 (stereo unspecified)
TGI (OVCAR-8 ovarian): 21.8 µM | TGI (HCT-116 colon): 11 µM | TGI (SN12C renal): 19.5 µM | TGI (NCI-H23 lung): 21.8 µM | TGI (KM12 colon): 16.6 µM | TGI (SR leukemia): 11.4 µM

O=C(O)c1cc(CCc2cc(O)ccc2O)ccc1O
TGI (OVCAR-8 ovarian): > 100 µM | TGI (HCT-116 colon): > 100 µM | TGI (SN12C renal): > 100 µM | TGI (NCI-H23 lung): > 100 µM | TGI (KM12 colon): > 100 µM | TGI (SR leukemia): > 100 µM

COc1ccc(C2=NOC(N)(c3ccc(OC)cc3)C2)cc1 (stereo unspecified)
TGI (OVCAR-8 ovarian): > 100 µM | TGI (HCT-116 colon): > 100 µM | TGI (SN12C renal): > 100 µM | TGI (NCI-H23 lung): > 100 µM | TGI (KM12 colon): > 100 µM | TGI (SR leukemia): > 100 µM

CNNC(=NS(=O)(=O)c1cc(C#N)c(NNC)cc1S)NNC
TGI (OVCAR-8 ovarian): > 10 µM | TGI (HCT-116 colon): > 10 µM | TGI (SN12C renal): > 10 µM | TGI (NCI-H23 lung): > 10 µM | TGI (KM12 colon): > 10 µM | TGI (SR leukemia): > 10 µM

COc1cccc(C2c3cc4c(cc3OC3COC(=O)C32)OCO4)c1OC (stereo unspecified)
TGI (OVCAR-8 ovarian): > 100 µM | TGI (HCT-116 colon): > 100 µM | TGI (SN12C renal): > 100 µM | TGI (KM12 colon): > 100 µM

COc1ccc(NC(=O)C(=O)/C=C(\O)c2ccccc2)cc1
TGI (OVCAR-8 ovarian): > 10 µM | TGI (SN12C renal): > 10 µM | TGI (NCI-H23 lung): > 10 µM | TGI (KM12 colon): > 10 µM | TGI (SR leukemia): 3.41 µM

CCOC(=O)C1CCCCN1C(=O)Cc1c[nH]c2ccccc12 (stereo unspecified)
TGI (OVCAR-8 ovarian): > 100 µM | TGI (HCT-116 colon): > 100 µM | TGI (SN12C renal): > 100 µM | TGI (NCI-H23 lung): > 100 µM | TGI (KM12 colon): > 100 µM

CO/N=C1/c2sccc2[C@H](NC(=O)C(Cc2ccccc2)NC(=O)OC(C)(C)C)[C@@H]1O (stereo partly specified)
TGI (OVCAR-8 ovarian): > 100 µM | TGI (HCT-116 colon): > 100 µM | TGI (SN12C renal): > 100 µM | TGI (NCI-H23 lung): > 100 µM | TGI (SR leukemia): > 100 µM

CN=C(Nc1cccc(C(F)(F)F)c1)SCc1ccc(N=C=S)cc1
TGI (OVCAR-8 ovarian): 40.7 µM | TGI (HCT-116 colon): 29 µM | TGI (SN12C renal): 26.9 µM | TGI (NCI-H23 lung): 31.4 µM | TGI (KM12 colon): 29.3 µM | TGI (SR leukemia): 40.4 µM

Nc1ncnc2c1ncn2[C@@H]1O[C@H](COC(c2ccccc2)(c2ccccc2)c2ccccc2)[C@@H](OC(=S)Oc2ccccc2)[C@@H]1F
TGI (OVCAR-8 ovarian): 11.9 µM | TGI (HCT-116 colon): 13.8 µM | TGI (SN12C renal): 15.1 µM | TGI (NCI-H23 lung): 16 µM | TGI (KM12 colon): 29.1 µM | TGI (SR leukemia): 8.24 µM

CSc1c(C#N)c(N)n(-c2ccc(Cl)cc2)c(=O)c1C#N
TGI (OVCAR-8 ovarian): > 100 µM | TGI (HCT-116 colon): > 100 µM | TGI (SN12C renal): > 100 µM | TGI (NCI-H23 lung): > 100 µM | TGI (KM12 colon): > 100 µM | TGI (SR leukemia): > 100 µM
